PubChem BioAssay (NCI)
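Cells were grown in 96-well plates and exposed to each compound for 48 hours at five concentrations; endpoints were interpolated linearly between bracketing concentrations, or set to the highest concentration if not reached. At the GI50, growth is halved. Definition used: TGI = concentration required for complete inhibition of growth.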

Columns and labels:
Assay in all cases: inhibition of tumour cell growth, NCI panel, 48 h
ACHN renal = test system: ACHN renal
COLO 205 colon = test system: COLO 205 colon
HCT-15 colon = test system: HCT-15 colon
OVCAR-3 ovarian = test system: OVCAR-3 ovarian
RPMI-8226 leukemia = test system: RPMI-8226 leukemia
RXF 393 renal = test system: RXF 393 renal
SK-MEL-5 melanoma = test system: SK-MEL-5 melanoma
EKVX NSCLC = test system: EKVX NSCLC
NCI-H23 lung = test system: NCI-H23 lung
T-47D breast = test system: T-47D breast

SMILES | TGI (ACHN renal) [µM] | TGI (COLO 205 colon) [µM] | TGI (HCT-15 colon) [µM] | TGI (OVCAR-3 ovarian) [µM] | TGI (RPMI-8226 leukemia) [µM] | TGI (RXF 393 renal) [µM] | TGI (SK-MEL-5 melanoma) [µM] | TGI (EKVX NSCLC) [µM] | TGI (NCI-H23 lung) [µM] | GI50 (ACHN renal) [µM] | GI50 (COLO 205 colon) [µM] | GI50 (EKVX NSCLC) [µM] | GI50 (HCT-15 colon) [µM] | GI50 (NCI-H23 lung) [µM] | GI50 (OVCAR-3 ovarian) [µM] | GI50 (RPMI-8226 leukemia) [µM] | GI50 (RXF 393 renal) [µM] | GI50 (SK-MEL-5 melanoma) [µM] | GI50 (T-47D breast) [µM] | TGI (T-47D breast) [µM]
CN(C)c1nc(=Nc2ccc3ccccc3c2)ss1 | > 100 | 23.2 | > 100 | > 100 | 52.5 | > 100 | 29.9 | – | – | – | – | – | – | – | – | – | – | – | – | –
c1ccc(SC(CCCCC(Sc2ccccc2)Sc2ccccc2)Sc2ccccc2)cc1 | > 100 | > 100 | > 100 | > 100 | > 100 | > 100 | > 100 | > 100 | > 100 | – | – | – | – | – | – | – | – | – | – | –
COc1ccc(OC)c(NC(=O)CCC/C(CC(=O)c2ccc(O)c(OC)c2)=N\NC(=O)C[N+](C)(C)C)c1 | > 100 | > 100 | > 100 | > 100 | > 100 | – | > 100 | > 100 | > 100 | – | – | – | – | – | – | – | – | – | – | –
COc1cc(C(=O)C/C(CCC(=O)Nc2ccccc2[N+](=O)[O-])=N\NC(=O)CC#N)ccc1O | > 100 | > 100 | > 100 | > 100 | > 100 | > 100 | > 100 | > 100 | > 100 | – | – | – | – | – | – | – | – | – | – | –
COc1ccc(C2=C(Cl)c3cc(OC)c(OC)cc3C2Cl)cc1OC (stereo not drawn) | 38.3 | 32.5 | 55.6 | 28.4 | 27.7 | 35.3 | 28.5 | 50.5 | 38.2 | – | – | – | – | – | – | – | – | – | – | –
c1ccc2c(c1)c(NCCCCN1CCCCC1)cc1c3ccccc3c(NCCCCN3CCCCC3)cc21 | 30.5 | 47.7 | 47.5 | 87.2 | 74.5 | 38.2 | 31.4 | 42 | 44.5 | 15.5 | 21.9 | 19.9 | 22.8 | 20.5 | 19.5 | 3.85 | 15.7 | 15.1 | – | –
CCOC(=O)c1oc2ccc(OC)c3c2c1CCC3 | > 100 | > 100 | > 100 | > 100 | > 100 | > 100 | > 100 | > 100 | > 100 | – | – | – | – | – | – | – | – | – | – | –
C=C1COC(/C=C(\C)CC/C=C(\C)CCl)C1 (stereo not drawn) | > 100 | > 100 | > 100 | > 100 | > 100 | > 100 | > 100 | > 100 | > 100 | – | – | – | – | – | – | – | – | – | – | –
Brc1cccc(C2SCc3nc4ccccc4n32)c1 (stereo not drawn) | > 100 | 38.6 | 35.9 | 32.6 | > 100 | 26.4 | 18.9 | 55.2 | 44.7 | – | – | – | – | – | – | – | – | – | – | –
O=C1OC(CCCl)(c2ccccc2)CC1CN1CCOCC1 (stereo not drawn) | > 100 | 35.4 | 55.5 | 32.1 | 27.9 | 30.9 | 41.7 | 40.5 | 23.7 | – | – | – | – | – | – | – | – | – | – | –
O=C(/C(=C/c1ccc([N+](=O)[O-])cc1)c1ccccc1)c1ccccc1 | – | 18.2 | > 100 | 5.64 | 6.49 | 6.78 | – | – | – | – | 3.81 | – | 2.85 | – | 2.36 | 2.36 | 2.78 | – | 3.13 | > 100
Cc1c(C#N)c(=O)[nH]c(=O)n1CCN1CCN(C(=O)NCCCCCCNC(=O)N2CCN(CCn3c(C)c(C#N)c(=O)[nH]c3=O)CC2)CC1 | > 100 | > 100 | > 100 | > 100 | > 100 | > 100 | > 100 | > 100 | > 100 | – | – | – | – | – | – | – | – | – | – | –
CCN(C(=O)N1CCN(c2cc3c(cc2F)c(=O)c(C(=O)O)cn3C2CC2)CC1)c1nc(-c2ccc(C)cc2)cs1 | > 100 | – | > 100 | 2.47 | – | 4.2 | > 100 | > 100 | 24.6 | 0.976 | – | 1.52 | 0.341 | 0.399 | 0.368 | – | 0.38 | 0.858 | 2.11 | > 100
CCCCCCc1cc(C(=O)Nc2cccc(C(F)(F)F)c2)nc(N)n1 | > 100 | > 100 | > 100 | > 100 | > 100 | > 100 | > 100 | > 100 | > 100 | – | – | – | – | – | – | – | – | – | – | –
CS(=O)(=O)Oc1cccc(/C=N/N=C(\N)NO)c1 | 66.1 | > 100 | > 100 | > 100 | – | > 100 | – | > 100 | > 100 | – | – | – | – | – | – | – | – | – | – | –
Nn1c(-c2ccccc2Cl)nc2ccccc2c1=O | > 100 | > 100 | > 100 | > 100 | > 100 | – | > 100 | > 100 | > 100 | – | – | – | – | – | – | – | – | – | – | –
COc1cc2c(cc1OC(=O)CC(C)O)C1C(OC2=O)C(OC(C)=O)C=C2CCN(C)[C@H]21 (stereo partly drawn) | > 100 | > 100 | – | > 100 | – | – | > 100 | > 100 | > 100 | – | – | – | – | – | – | – | – | – | – | –
COc1cc2nc(N3CCCC3)nc(NCC3CCCCC3)c2cc1OC | 2.75 | 0.499 | 1.8 | 2.99 | – | 2.49 | 2.68 | 2.91 | 3.07 | 1.44 | 0.223 | 1.45 | 0.505 | 1.57 | 1.55 | – | 1.07 | 1.35 | 1.45 | 3.51
COc1cccc(NC(=O)c2sc3nc4c(cc3c2N)CN(Cc2ccccc2)CC4)c1 | 64.5 | 54.5 | > 100 | 26.9 | > 100 | 12.9 | 31.9 | – | 49.2 | 3.46 | 7.55 | – | 0.93 | 7.18 | 7.53 | 38.9 | 2.71 | 2.15 | 4.62 | 47.3
CCCCCCCCCCCC(=O)OCCOCCOCCOCCOCCOCc1ccc(OC)cc1 | > 100 | > 100 | > 100 | > 100 | > 100 | > 100 | > 100 | > 100 | > 100 | – | – | – | – | – | – | – | – | – | – | –
